Source: patent US8232297B2, “Sulphonylpyrroles as inhibitors of HDACs novel sulphonylpyrroles” (4SC AG, priority 2005, dated 2012)
Each block holds one molecule with its values, some of them ahead of it.

Assays:
[1] = system: RKO proliferating colon carcinoma cells; test: Cell-cycle dependent cytotoxicity, RKO exop21 system, proliferating; format: cell-based; conditions: 72 h, given only as range over the listed compounds
Method: (§1) For determination of cell-cycle dependent cytotoxicity, the RKO exop21 cell system was applied (Schmidt et al. Oncogene 19: 2423-2429, 2000). Briefly, RKO cells with/without p21^waf1 expression (2×10^4 cells/well induced, 6×10^3 cells/well not induced) were treated with the examples for 72 h and metabolic activity quantified as described before. The expression of p21^waf1 was induced by treatment with Pronasterone A, causing a complete proliferation arrest of RKO cells in the G1 and G2 phases of the cell division cycle.

[2] = system: RKO arrested (p21waf1 expressed) colon carcinoma cells; test: Cell-cycle dependent cytotoxicity, RKO exop21 system, arrested; format: cell-based; conditions: 72 h, p21waf1 induced, given only as range over the listed compounds
Method: as §1

A549 cell line = test: Combination experiment with Trail; format: cell-based; conditions: example at about its IC50 with Trail, 4 h pretreatment, 72 h total
Method: A549 non-small cell lung cancer, MDA-MB468 breast cancer and […] colorectal cancer cell lines were pretreated with the examples for 4 h before adding the chemotherapeutic agents or Trail and further incubation for 72 h total. The IC50 values of these combinations were determined from concentration-effect curves and compared to IC50 values of cell treated with the anti-cancer agent only.

[3] = system: HeLa cervical carcinoma cells; test: Cellular cytotoxicity assay (Alamar Blue), HeLa; format: cell-based; conditions: Homo sapiens, 72 h, printed only as range over the group of listed compounds
Method: The anti-proliferative activity of the histone deacetylase inhibitory compounds as described herein, was evaluated using the following cell lines: HeLa and HeLa-KB (cervical carcinoma), H460 (non small cell lung cancer), A549 (non-small cell lung cancer), MCF7 (breast carcinoma), MCF10A (normal, non tumorigenic breast epithelial), MDA-MB468 (breast carcinoma), MDA-MB435 (breast carcinoma), MDA-MB231 (breast carcinoma), SKBR-3 (breast carcinoma), SKOV-3 (ovarial carcinoma), A-2780 (ovarial carcinoma), RKO (colon carcinoma), HCT-15 (colon carcinoma), HCT-116 (colon carcinoma), PC3 (prostate carcinoma), BPH1 (benign prostate hyperplasia), AsPC1 (pancreatic carcinoma), Cal27 (tongue carcinoma), A-431 (vulva carcinoma), Hec1A (endometrial carcinoma), Saos-2 (osteosarcoma), U87MG (glioblastoma), WM266-4 (melanoma), K562 (chronic myeloid carcinoma), EOL1 (acute hypereosinophilic myeloid leukemia), CCRF-CEM and CCRF-CEM VCR1000 (acute lymphoblastic leukemia sensitive and resistant towards Vincristine). For quantification of cellular proliferation/living cells the Alamar Blue (Resazurin) cell viability assay was applied (O'Brien et al. Eur J Biochem 267, 5421-5426, 2000). […] After 4 hours incubation at 37° C. the fluorescence was measured at an extinction of 544 nm and an emission of 590 nm. […] Viabilities were expressed as % values. […]

melting point: 244.2 to 246.5 °C
SMILES: Nc1ccccc1NC(=O)/C=C/c1ccn(S(=O)(=O)c2ccc(-c3ccncc3)cc2)c1 [Compound 20, (E)-N-(2-Amino-phenyl)-3-[1-(4-pyridin-4-yl-benzenesulfonyl)-1H-pyrrol-3-yl]-acrylamide]

melting point: 199.7 to 202.3 °C
SMILES: Nc1ccccc1NC(=O)/C=C/c1ccn(S(=O)(=O)c2ccc(-c3cccnc3)cc2)c1 [Compound 21, (E)-N-(2-Amino-phenyl)-3-[1-(4-pyridin-3-yl-benzenesulfonyl)-1H-pyrrol-3-yl]-acrylamide]

melting point: 232.3 to 240.9 °C
SMILES: Nc1ccccc1NC(=O)/C=C/c1ccn(S(=O)(=O)c2ccc(-c3cn[nH]c3)cc2)c1 [Compound 22, (E)-N-(2-Amino-phenyl)-3-{1-[4-(1H-pyrazol-4-yl)-benzenesulfonyl]-1H-pyrrol-3-yl}-acrylamide]

melting point: 114 to 159.4 °C
SMILES: O=C(/C=C/c1ccn(S(=O)(=O)c2cccc(-c3ccccc3)c2)c1)NO [Compound 23, (E)-3-[1-(Biphenyl-3-sulfonyl)-1H-pyrrol-3-yl]-N-hydroxy-acrylamide]

melting point: 171.3 to 174.7 °C
SMILES: Nc1ccccc1NC(=O)/C=C/c1ccn(S(=O)(=O)c2ccc(-c3ccccn3)s2)c1 [Compound 26, (E)-N-(2-Amino-phenyl)-3-[1-(5-pyridin-2-yl-thiophene-2-sulfonyl)-1H-pyrrol-3-yl]-acrylamide]

melting point: 160.7 to 166.6 °C
SMILES: O=C(/C=C/c1ccn(S(=O)(=O)c2ccc(-n3cccn3)cc2)c1)NO [Compound 25, (E)-N-Hydroxy-3-[1-(4-pyrazol-1-yl-benzenesulfonyl)-1H-pyrrol-3-yl]-acrylamide]

melting point: 168 to 170 °C
SMILES: O=C(/C=C/c1ccn(S(=O)(=O)c2ccc(CN3CCOCC3)cc2)c1)NO [Compound 27, (E)-N-Hydroxy-3-[1-(4-morpholin-4-ylmethyl-benzenesulfonyl)-1H-pyrrol-3-yl]-acrylamide]

Second part, the molecule before the results:

SMILES: O=C(/C=C/c1ccn(S(=O)(=O)c2ccc(-c3ccncc3)cc2)c1)NO [Compound 18, (E)-N-Hydroxy-3-[1-(4-pyridin-4-yl-benzenesulfonyl)-1H-pyrrol-3-yl]-acrylamide]
melting point: 219.3 to 221.4 °C

SMILES: O=C(/C=C/c1ccn(S(=O)(=O)c2ccc(-c3cn[nH]c3)cc2)c1)NO [Compound 19, (E)-N-Hydroxy-3-{1-[4-(1H-pyrazol-4-yl)-benzenesulfonyl]-1H-pyrrol-3-yl}-acrylamide]
melting point: 203.8 to 211.9 °C

SMILES: O=C(/C=C/c1ccn(S(=O)(=O)c2ccc(-c3ccccn3)s2)c1)NO [Compound 24, (E)-N-Hydroxy-3-[1-(5-pyridin-2-yl-thiophene-2-sulfonyl)-1H-pyrrol-3-yl]-acrylamide]
IC50 [1]: 150 to 5100 nM
IC50 [2]: 0.45 to 15 µM
Effect of combination with Trail (A549 cell line): synergism is highly likely

SMILES: CN(C)Cc1ccc(S(=O)(=O)n2ccc(/C=C/C(=O)NO)c2)cc1 [Compound 10, (E)-3-[1-(4-Dimethylaminomethyl-benzenesulfonyl)-1H-pyrrol-3-yl]-N-hydroxy-acrylamide]
IC50 [1]: 150 to 5100 nM
IC50 [2]: 0.45 to 15 µM
Effect of combination with Trail (A549 cell line): synergism is highly likely

SMILES: O=C(/C=C/c1ccn(S(=O)(=O)c2ccc(-c3ccccc3)cc2)c1)NO [Compound 3, (E)-3-[1-(Biphenyl-4-sulfonyl)-1H-pyrrol-3-yl]-N-hydroxy-acrylamide]
IC50 [1]: 150 to 5100 nM
IC50 [2]: 0.45 to 15 µM
Effect of combination with Trail (A549 cell line): synergism is highly likely

SMILES: NCc1ccc(S(=O)(=O)n2ccc(/C=C/C(=O)NO)c2)cc1 [Compound 17, (E)-3-[1-(4-Aminomethyl-benzenesulfonyl)-1H-pyrrol-3-yl]-N-hydroxy-acrylamide]
melting point: 227 to 228.6 °C

SMILES: CN(CCc1cc2ccccc2[nH]1)Cc1ccc(S(=O)(=O)n2ccc(/C=C/C(=O)NO)c2)cc1 [Compound 9, (E)-N-Hydroxy-3-(1-[4-(([2-(1H-indol-2-yl)-ethyl]-methyl-amino)-methyl)-benzenesulfonyl]-1H-pyrrol-3-yl)-acrylamide]
IC50 [1]: 150 to 5100 nM
IC50 [2]: 0.45 to 15 µM
Effect of combination with Trail (A549 cell line): synergism is highly likely

SMILES: Cc1ccc(S(=O)(=O)n2ccc(C=CC(=O)NO)c2)cc1 [Compound 1, (E)-N-Hydroxy-3-[1-(toluene-4-sulfonyl)-1-H-pyrrol-3-yl]-acrylamide]
IC50 [3]: 0.8 to 21.6 µM
